This assay concerns serum fucosylated PSA. The experiment in a line: Sandwich ELISA, anti-PSA antibody and biotin-labeled lectin. The format is binding, human. The conditions noted are these: for Δ (=A − B): reaction value of Prostate cancer 4 minus Healthy 1; for lectin reaction value B of Healthy 1: serum of Healthy 1; for lectin reaction value A of Prostate cancer 4: serum of Prostate cancer 4, GS 6 (3 + 3). How it is done:
The anti-PSA antibody from which sugar chains had been removed was diluted to 5 μg/mL with PBS. 25 μL of this diluted solution was added to each well of an ELISA plate and allowed to stand at 37° C. for 12 hours, and then the additive solution was discarded.
150 μL of PBS containing 0.05% Tween 20 (product name: polyoxyethylene sorbitan monolaurate, from Nacalai Tesque, Inc.) was added to each well, and then the additive solution was discarded. This manipulation was repeated three times in total.
25 μL of 1% BSA/PBS was added to each well and allowed to stand at 37° C. for 1 hour, and then the additive solution was discarded.
150 μL of PBS containing 0.05% Tween 20 was added to each well, and then the additive solution was discarded. This manipulation was repeated three times in total.
To graph a calibration curve, 25 μL of the fucosylated PSA reference standard diluted with 1% BSA/PBS to a concentration of 0 to 200 ng/mL was added to each well and allowed to stand at room temperature for 1 hour, and then the additive solution was discarded. In addition, to detect the fucosylated PSA in the serum of the subject by the lectin, 25 μL of serum of “Healthy 1” and “Prostate cancer 4” 2-fold diluted with PBS was added to each well and allowed to stand at room temperature for 1 hour, and then the additive solution was discarded.
In Reference Example 1, 25 μL of a biotin-labeled PhoSL diluted to 0.1 μg/mL with 0.1% BSA/PBS (pH 7.4) was added to each well and allowed to stand at 4° C. for 30 minutes, and then the additive solution was discarded. In Example 1, 25 μL of a biotin-labeled PhoSL diluted to 0.1 μg/mL with 0.1% BSA/10-fold diluted PBS+glycine-NaOH (pH 9.6) was added to each well and allowed to stand at 4° C. for 30 minutes, and then the additive solution was discarded.
25 μL of a horseradish peroxidase (HRP)-labeled streptavidin solution (from Vector Laboratories, Inc., concentration: 0.4 μg/mL, in 1% BSA/PBS) was added to each well and allowed to stand at room temperature for 30 minutes, and then the additive solution was discarded.
25 μL of chromogenic substrate for HRP (product name: TMB, from Kirkegaard & Perry Laboratories, Inc.) was added to each well and allowed to stand at room temperature for 10 minutes.
25 μL of 1M phosphoric acid was added to terminate the reaction.
Absorbance (Ab) at 450 nm and 630 nm was measured using a plate reader, and a measurement (Ab450-630) was obtained.
A calibration curve was graphed by plotting signals (reaction values, Ab450-630) of the fucosylated PSA reference standard with the biotin-labeled PhoSL. A Signal (Ab450-630) of the biotin-labeled PhoSL corresponding to the fucosylated PSA concentration of 10 ng/mL was defined as 10 U/mL.
The signals of biotin-labeled PhoSL (Ab450-630) for the serum fucosylated PSA in the subject samples A were assigned to the calibration curve to calculate reaction values (unit: U/mL).
The PhoSL reaction values for the subject samples A were measured by the same operation as in Example 1. From the PhoSL reaction values, an average value and a median value were determined. Furthermore, a standard cutoff value (89.7 U/mL) was used to determine a detection rate (positive rate) of the prostate cancer patients, and a false detection rate (false positive rate) of the healthy persons.
Comparative Example 2 in Table 9 indicates results of detecting the serum fucosylated PSA using AAL (AAL reaction values) in the subject samples A. Specifically, in Reference Example 1, AAL reaction values were measured in the same manner as in Reference Example 1 except that the biotin-labeled PhoSL was replaced with a biotin-labeled AAL. A standard cut-off value for the AAL reaction values was 894.8 U/mL. As in Example 2, an average value, a median value, a positive rate and a false positive rate were determined from the AAL reaction values.
(In general: ELISA stands for enzyme-linked immunosorbent assay.)

As to “PhoSL peptide: synthesized Pholiota squarrosa lectin peptide, SEQ ID No. 6 (Lys substitutions at 1, 20, 39; 40th Gly deleted) (KPVPVTKLVCDGDTYKCTAKLDFGDGRWVAQWDTNVFHK; Modification of SEQ ID(1) in which Ala at position 1, Tyr at position 20 and Thr at position 39 are substituted with Lys, and Gly at position 40 is deleted.)”, for the setting “pH in lectin reaction 7.4”, the “Δ (=A − B)” value is 100.5 U/mL, the “lectin reaction value B of Healthy 1” value turned out to be 1.0 U/mL and the “lectin reaction value A of Prostate cancer 4” value is given as 101.5 U/mL. For the setting “pH in lectin reaction 9.6”, the “Δ (=A − B)” value worked out at 234.4 U/mL, the “lectin reaction value B of Healthy 1” value is given as “Below detection limit” and the “lectin reaction value A of Prostate cancer 4” value is 234.4 U/mL.
